US12617773B2, “Azetidin-3-ylmethanol derivatives as CCR6 receptor modulators” (Idorsia Pharmaceuticals Ltd, priority 2020, dated 2026)
pIC50: −log10 of the molar value.

Target: T1, human CCR6 (Homo sapiens, UniProt P51684)
T1 construct: expressed in transfected cells; host or cells: HEK-293
T1 sequence (P51684 1-374): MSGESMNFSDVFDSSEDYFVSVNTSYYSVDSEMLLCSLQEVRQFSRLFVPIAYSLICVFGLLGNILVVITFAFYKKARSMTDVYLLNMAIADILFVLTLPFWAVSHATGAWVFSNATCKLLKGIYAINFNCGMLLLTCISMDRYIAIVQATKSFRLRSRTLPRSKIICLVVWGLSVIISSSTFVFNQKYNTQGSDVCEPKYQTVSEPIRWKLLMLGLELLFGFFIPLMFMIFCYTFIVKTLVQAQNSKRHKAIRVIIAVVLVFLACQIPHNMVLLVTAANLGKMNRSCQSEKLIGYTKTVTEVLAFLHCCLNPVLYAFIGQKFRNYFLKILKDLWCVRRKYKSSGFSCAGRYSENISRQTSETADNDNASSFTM
Assay: FLIPR assay (inhibition of CCL20-induced calcium signal)
Assay type: cell-based
Settings: HEK-293 cells expressing human CCR6; mean values where determined several times; read-out: FLIPR IC50
How it was run: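 IC50 values come from baseline-corrected peak calcium fluorescence after agonist. The agonist was CCL20 at 10 nM final, added to engineered human CCR6 HEK-293 cells following a 30-min, room-temperature, dark preincubation with serially diluted compound. Readings were taken in a fluorometric imaging plate reader.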

| Compound | pIC50 |
| --- | --- |
| Cc1cccc(C(C)(O)C#Cc2cncc([C@@](O)(c3ccc(C(C)C)cc3)C3(C)CN(C4CC4)C3)c2)n1 (stereo partly drawn) [Example 670, 4-{5-[(R)-(1-Cyclopropyl-3-methyl-azetidin-3-yl)-hydroxy-(4-isopropyl-phenyl)-methyl]-pyridin-3-yl}-2-(6-methyl-pyridin-2-yl)-but-3-yn-2-ol] | 7.37 |
| Cc1ncc(C2CC(=O)N(c3cncc([C@@](O)(c4ccc(C(C)C)cc4)C4(C)CN(C)C4)c3)C2)s1 (some centres unmarked) [Example 672] | 6.76 |
| Cc1ccc(C2CC(=O)N(c3cncc([C@@](O)(c4ccc(C(C)C)cc4)C4(C)CN(C)C4)c3)C2)cn1 (some centres unmarked) [Example 673] | 6.70 |
| CC(C)c1ccc([C@](O)(c2cncc(N3CC(c4cccc(C(C)C)n4)CC3=O)c2)C2(C)CN(C)C2)cc1 (some centres unmarked) [Example 674] | 7.59 |
| CC(C)c1ccc([C@](O)(c2cncc(N3CC(c4ccc(C(F)(F)F)nc4)CC3=O)c2)C2(C)CN(C)C2)cc1 (some centres unmarked) [Example 675] | 6.64 |
| CC(C)c1ccc([C@](O)(c2cncc(N3CC(c4cnn(C)c4)CC3=O)c2)C2(C)CN(C)C2)cc1 (some centres unmarked) [Example 676] | 6.97 |
| CC(C)c1ccc([C@](O)(c2cncc(N3CC(c4cnn(C(F)F)c4)CC3=O)c2)C2(C)CN(C)C2)cc1 (some centres unmarked) [Example 678] | 6.81 |
| CC(=O)N1CCC(C2CC(=O)N(c3cc([C@@](O)(c4ccc(C(C)C)cc4)C4(C)CN(C)C4)cnn3)C2)CC1 (stereo partly drawn) [Example 680, 4-(1-Acetyl-piperidin-4-yl)-1-{5-[(R)-(1,3-dimethyl-azetidin-3-yl)-hydroxy-(4-isopropyl-phenyl)-methyl]-pyridazin-3-yl}-pyrrolidin-2-one] | 6.37 |
| CC(C)c1ccc([C@](O)(c2cnnc(N3CC4OCCC4C3=O)c2)C2(C)CN(C)C2)cc1 (stereo partly drawn) [Example 681, 5-{5-[(R)-(1,3-Dimethyl-azetidin-3-yl)-hydroxy-(4-isopropyl-phenyl)-methyl]-pyridazin-3-yl}-hexahydro-furo[2,3-c]pyrrol-4-one] | 6.55 |
| CC(C)c1ccc([C@](O)(c2cnnc(N3CC(c4cccc(C(C)C)n4)CC3=O)c2)C2(C)CN(C)C2)cc1 (stereo partly drawn) [Example 682, 1-{5-[(R)-(1,3-Dimethyl-azetidin-3-yl)-hydroxy-(4-isopropyl-phenyl)-methyl]-pyridazin-3-yl}-4-(6-isopropyl-pyridin-2-yl)-pyrrolidin-2-one] | 8.10 |
| CC(=O)N1CCc2nc(-c3cncc([C@@](O)(c4ccc(C(C)C)cc4)C4(C)CN(C)C4)c3)ncc2C1 [Example 683, 1-(2-{5-[(R)-(1,3-Dimethyl-azetidin-3-yl)-hydroxy-(4-isopropyl-phenyl)-methyl]-pyridin-3-yl}-7,8-dihydro-5H-pyrido[4,3-d]pyrimidin-6-yl)-ethanone] | 6.98 |
| CC(=O)N1CCc2nc(-c3cncc([C@@](O)(c4ccc(C(C)C)cc4)C4(C)CN(C)C4)c3)ccc2C1 [Example 684, 1-(2-{5-[(R)-(1,3-Dimethyl-azetidin-3-yl)-hydroxy-(4-isopropyl-phenyl)-methyl]-pyridin-3-yl}-7,8-dihydro-5H-[1,6]naphthyridin-6-yl)-ethanone] | 6.90 |
| CC(=O)N1CCC(c2cnc(-c3cncc([C@@](O)(c4ccc(C(C)C)cc4)C4(C)CN(C)C4)c3)nc2)CC1 [Example 685, 1-[4-(2-{5-[(R)-(1,3-Dimethyl-azetidin-3-yl)-hydroxy-(4-isopropyl-phenyl)-methyl]-pyridin-3-yl}-pyrimidin-5-yl)-piperidin-1-yl]-ethanone] | 6.62 |
| CC(=O)N1CCC(c2ccnc(-c3cncc([C@@](O)(c4ccc(C(C)C)cc4)C4(C)CN(C)C4)c3)n2)CC1 [Example 686, 1-[4-(2-{5-[(R)-(1,3-Dimethyl-azetidin-3-yl)-hydroxy-(4-isopropyl-phenyl)-methyl]-pyridin-3-yl}-pyrimidin-4-yl)-piperidin-1-yl]-ethanone] | 6.84 |
